Data as given in US9334286B2, “Pharmacologically active compounds” (Cancer Research Technology Limited, priority 2012, dated 2016).

Each compound was assayed against full length MPS1 (Homo sapiens (Human), UniProt P33981) (assay: Measurement of inhibition of MPS1 kinase (Caliper EZ reader, fluorescent labelled peptide H236)). Details: not given.
Format: biochemical
Method: The reaction was carried out for 60 min at room temperature and stopped by the addition of buffer (10 μl) containing 20 mM EDTA, 0.05% (v/v) Brij-35, in 0.1M HEPES-buffered saline (Free acid, Sigma, UK). The plate was read on a Caliper EZ reader II (Caliper Life Sciences).
The reader provides a Software package (‘Reviewer’) which converts the peak heights into % conversion by measuring both product and substrate peak and also allows selection of control well which represent 0% and 100% inhibition respectively. The % inhibition of the compounds is calculated relative to the means of selected control wells. IC50s are determined by testing the compounds at a range of concentrations from 0.25 nM-100 μM. The % inhibitions at each concentration are then fitted to a 4 parameter logistic fit: y=(a+((b−a)/(1+((c/x^d)))) where a=asym min, b=asym max, c=IC50 and d=hill coefficient

Sequence of full length MPS1 (P33981 whole entry): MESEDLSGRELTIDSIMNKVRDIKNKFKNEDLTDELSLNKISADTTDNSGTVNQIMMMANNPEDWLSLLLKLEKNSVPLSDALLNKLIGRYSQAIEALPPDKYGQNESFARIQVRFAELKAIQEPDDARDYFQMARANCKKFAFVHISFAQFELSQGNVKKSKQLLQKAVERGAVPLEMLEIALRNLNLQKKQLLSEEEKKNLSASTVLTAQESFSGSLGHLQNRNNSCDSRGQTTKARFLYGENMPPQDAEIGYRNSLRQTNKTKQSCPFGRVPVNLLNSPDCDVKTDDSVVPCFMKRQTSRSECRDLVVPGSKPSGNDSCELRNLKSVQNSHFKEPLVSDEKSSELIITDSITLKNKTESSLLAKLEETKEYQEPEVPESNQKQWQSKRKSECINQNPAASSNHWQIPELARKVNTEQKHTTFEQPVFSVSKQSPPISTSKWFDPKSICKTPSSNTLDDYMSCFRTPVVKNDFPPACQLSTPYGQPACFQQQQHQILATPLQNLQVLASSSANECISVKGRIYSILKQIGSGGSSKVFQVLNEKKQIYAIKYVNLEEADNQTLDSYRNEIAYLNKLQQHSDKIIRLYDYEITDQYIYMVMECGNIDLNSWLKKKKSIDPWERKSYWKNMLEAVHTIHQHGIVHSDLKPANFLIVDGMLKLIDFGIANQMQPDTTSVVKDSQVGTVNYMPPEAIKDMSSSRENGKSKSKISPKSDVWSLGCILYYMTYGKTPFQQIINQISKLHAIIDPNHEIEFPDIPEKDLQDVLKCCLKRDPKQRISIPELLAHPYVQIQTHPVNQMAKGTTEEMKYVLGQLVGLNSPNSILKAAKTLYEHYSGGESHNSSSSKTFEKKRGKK

Compound	IC50 [nM]
COCCn1cc(-c2ccc3cnc(Nc4ccc(-c5cnc(CO)n5C)cc4OC)cc3c2)cn1 [Example 25, (5-(3-Methoxy-4-((6-(1-(2-methoxyethyl)-1H-pyrazol-4-yl)isoquinolin-3-yl)amino)phenyl)-1-methyl-1H-imidazol-2-yl)methanol]	28

Same assay, conditions: full length MPS1 12.5 nM or 3 nM, peptide H236 5 μM, ATP 10 μM, 60 min at room temperature

Compound	IC50 [nM]
COc1cc(-c2cnc(C)n2C)ccc1Nc1cc2cc(-c3cncnc3)ccc2cn1 [Example 17, N-(4-(1,2-dimethyl-1H-imidazol-5-yl)-2-methoxyphenyl)-6-(pyrimidin-5-yl)isoquinolin-3-amine]	14
COc1cc(-c2cnc(C)n2C)ccc1Nc1cc2cc(C3CC3)ccc2cn1 [Example 18, 6-Cyclopropyl-N-(4-(1,2-dimethyl-1H-imidazol-5-yl)-2-methoxyphenyl)isoquinolin-3-amine]	144
COc1cc(-c2cnc(C)n2C)ccc1Nc1cc2cc(-c3cn(C)nc3C)ccc2cn1 [Example 19, N-(4-(1,2-dimethyl-1H-imidazol-5-yl)-2-methoxyphenyl)-6-(1,3-dimethyl-1H-pyrazol-4-yl)isoquinolin-3-amine]	30
COc1cc(-c2cnc(C)n2C)ccc1Nc1cc2cc(-c3cnn(C)c3C)ccc2cn1 [Example 20, N-(4-(1,2-dimethyl-1H-imidazol-5-yl)-2-methoxyphenyl)-6-(1,5-dimethyl-1H-pyrazol-4-yl)isoquinolin-3-amine]	2
COc1cc(-c2cncn2C)ccc1Nc1cc2cc(-c3cnn(C)c3)ccc2cn1 [Example 21, N-(2-methoxy-4-(1-methyl-1H-imidazol-5-yl)phenyl)-6-(1-methyl-1H-pyrazol-4-yl)isoquinolin-3-amine]	3
Cc1ncc(-c2ccc(Nc3cc4cc(-c5cnn(C)c5)ccc4cn3)c(Cl)c2)n1C [Example 22, N-(2-chloro-4-(1,2-dimethyl-1H-imidazol-5-yl)phenyl)-6-(1-methyl-1H-pyrazol-4-yl)isoquinolin-3-amine]	4
COc1cc(-c2cnc(C)n2C)ccc1Nc1cc2cc(-c3cnn(C)c3)ccc2cn1 [Example 23, N-(4-(1,2-dimethyl-1H-imidazol-5-yl)-2-methoxyphenyl)-6-(1-methyl-1H-pyrazol-4-yl)isoquinolin-3-amine]	2
COc1cc(C(=O)N2CC(OC)C2)ccc1Nc1cc2cc(-c3cnn(C)c3)ccc2cn1 [Example 24, (3-Methoxy-4-((6-(1-methyl-1H-pyrazol-4-yl)isoquinolin-3-yl)amino)phenyl)(3-methoxyazetidin-1-yl)methanone]	2
COc1cc(-c2cnc(C)n2C)ccc1Nc1cc2cc(-c3cncc(C)c3)ccc2cn1 [Example 26, N-(4-(1,2-dimethyl-1H-imidazol-5-yl)-2-methoxyphenyl)-6-(5-methylpyridin-3-yl)isoquinolin-3-amine]	10
COc1cc(-c2cnc(C)n2C)ccc1Nc1cc2cc(-c3cnnn3C)ccc2cn1 [Example 27, N-(4-(1,2-dimethyl-1H-imidazol-5-yl)-2-methoxyphenyl)-6-(1-methyl-1H-1,2,3-triazol-5-yl)isoquinolin-3-amine]	4
COc1cc(-c2cnc(C)n2C)ccc1Nc1cc2cc(-c3cnn(CC4CCC4)c3)ccc2cn1 [Example 28, 6-(1-(Cyclobutylmethyl)-1H-pyrazol-4-yl)-N-(4-(1,2-dimethyl-1H-imidazol-5-yl)-2-methoxyphenyl)isoquinolin-3-amine]	3
COc1cc(-c2cnc(C)n2C)ccc1Nc1cc2cc(-c3cnn(CC(C)(C)O)c3)ccc2cn1 [Example 29, 1-(4-(3-((4-(1,2-Dimethyl-1H-imidazol-5-yl)-2-methoxyphenyl)amino)isoquinolin-6-yl)-1H-pyrazol-1-yl)-2-methylpropan-2-ol]	2
COc1cc(-c2cnc(C)n2C)ccc1Nc1cc2cc(-c3cnn(CC4(C)COC4)c3)ccc2cn1 [Example 30, N-(4-(1,2-Dimethyl-1H-imidazol-5-yl)-2-methoxyphenyl)-6-(1-((3-methyloxetan-3-yl)methyl)-1H-pyrazol-4-yl)isoquinolin-3-amine]	2
COCCn1cc(-c2ccc3cnc(Nc4ccc(-c5cnc(C)n5CCOC)cc4OC)cc3c2)cn1 [Example 31, N-(2-Methoxy-4-(1-(2-methoxyethyl)-2-methyl-1H-imidazol-5-yl)phenyl)-6-(1-(2-methoxyethyl)-1H-pyrazol-4-yl)isoquinolin-3-amine]	2
COc1cc(-c2cnc(C)n2C)ccc1Nc1cc2cc(-c3cnn(C4COC4)c3)ccc2cn1 [Example 33, N-(4-(1,2-Dimethyl-1H-imidazol-5-yl)-2-methoxyphenyl)-6-(1-(oxetan-3-yl)-1H-pyrazol-4-yl)isoquinolin-3-amine]	3
COc1cc(-c2cnc(C)n2C)ccc1Nc1cc2cc(-c3cnn(C)c3CO)ccc2cn1 [Example 34, (4-(3-((4-(1,2-Dimethyl-1H-imidazol-5-yl)-2-methoxyphenyl)amino)isoquinolin-6-yl)-1-methyl-1H-pyrazol-5-yl)methanol]	3
COCCn1c(-c2ccc(Nc3cc4cc(-c5cnn(CC(C)(C)O)c5)ccc4cn3)c(OC)c2)cnc1C [Example 35, 1-(4-(3-((2-Methoxy-4-(1-(2-methoxyethyl)-2-methyl-1H-imidazol-5-yl)phenyl)amino)-isoquinolin-6-yl)-1H-pyrazol-1-yl)-2-methylpropan-2-ol]	3
COc1cc(-c2cnn(C)c2CO)ccc1Nc1cc2cc(-c3cnn(CC(C)(C)O)c3)ccc2cn1 [Example 36, 1-(4-(3-((4-(5-(Hydroxymethyl)-1-methyl-1H-pyrazol-4-yl)-2-methoxyphenyl)amino)-isoquinolin-6-yl)-1H-pyrazol-1-yl)-2-methylpropan-2-ol]	3
COc1cc(-c2cnc(C)n2C)ccc1Nc1cc2cc(-c3cnn(CC4COC4)c3)ccc2cn1 [Example 37, N-(4-(1,2-Dimethyl-1H-imidazol-5-yl)-2-methoxyphenyl)-6-(1-(oxetan-3-ylmethyl)-1H-pyrazol-4-yl)isoquinolin-3-amine]	5
COc1cc(-c2cnc(C)n2C)ccc1Nc1cc2cc(-c3cnn(C4CCOCC4)c3)ccc2cn1 [Example 39, N-(4-(1,2-Dimethyl-1H-imidazol-5-yl)-2-methoxyphenyl)-6-(1-(tetrahydro-2H-pyran-4-yl)-1H-pyrazol-4-yl)isoquinolin-3-amine]	6
COc1cc(-c2nncn2C)ccc1Nc1cc2cc(-c3cnn(CC(C)(C)O)c3)ccc2cn1 [Example 41, 1-(4-(3-((2-Methoxy-4-(4-methyl-4H-1,2,4-triazol-3-yl)phenyl)amino)isoquinolin-6-yl)-1H-pyrazol-1-yl)-2-methylpropan-2-ol]	1
Cc1ncc(-c2ccc(Nc3cc4cc(-c5cnn(CC(C)(C)O)c5)ccc4cn3)c(Cl)c2)n1C [Example 42, 1-(4-(3-((2-Chloro-4-(1,2-dimethyl-1H-imidazol-5-yl)phenyl)amino)isoquinolin-6-yl)-1H-pyrazol-1-yl)-2-methylpropan-2-ol]	3
COc1cc(-c2cnc(C)n2C)ccc1Nc1cc2cc(-c3cnn(CC4(O)CCC4)c3)ccc2cn1 [Example 43, 1-((4-(3-((4-(1,2-Dimethyl-1H-imidazol-5-yl)-2-methoxyphenyl)amino)isoquinolin-6-yl)-1H-pyrazol-1-yl)methyl)cyclobutanol]	3
COc1cc(-c2cnc(C)n2C)ccc1Nc1cc2cc(-c3cnn(CC(F)(F)F)c3)ccc2cn1 [Example 44, N-(4-(1,2-Dimethyl-1H-imidazol-5-yl)-2-methoxyphenyl)-6-(1-(2,2,2-trifluoroethyl)-1H-pyrazol-4-yl)isoquinolin-3-amine]	4
CC(C)(O)Cn1cc(-c2ccc3cnc(Nc4ccc(N5CCOCC5)cc4Cl)cc3c2)cn1 [Example 45, 1-(4-(3-(2-Chloro-4-morpholinophenylamino)isoquinolin-6-yl)-1H-pyrazol-1-yl)-2-methylpropan-2-ol]	45
COc1cc(C(=O)N2CC(OC)C2)ccc1Nc1cc2cc(-c3cnn(CC(C)(C)O)c3)ccc2cn1 [Example 46, (4-(6-(1-(2-Hydroxy-2-methylpropyl)-1H-pyrazol-4-yl)isoquinolin-3-ylamino)-3-methoxy-phenyl)(3-methoxyazetidin-1-yl)methanone]	2
Cc1ncc(-c2ccc(Nc3cc4cc(-c5cnn(CC(C)(C)O)c5)ccc4cn3)cc2)n1C [Example 47, 1-(4-(3-(4-(1,2-Dimethyl-1H-imidazol-5-yl)phenylamino)isoquinolin-6-yl)-1H-pyrazol-1-yl)-2-methylpropan-2-ol]	6
CCOc1cc(-c2nncn2C)ccc1Nc1cc2cc(-c3cnn(CC(C)(C)O)c3)ccc2cn1 [Example 48, 1-(4-(3-(2-Ethoxy-4-(4-methyl-4H-1,2,4-triazol-3-yl)phenylamino)isoquinolin-6-yl)-1H-pyrazol-1-yl)-2-methylpropan-2-ol]	2
COc1cc(C#N)ccc1Nc1cc2cc(-c3cnn(CC(C)(C)O)c3)ccc2cn1 [Example 49, 4-(6-(1-(2-Hydroxy-2-methylpropyl)-1H-pyrazol-4-yl)isoquinolin-3-ylamino)-3-methoxy-benzonitrile]	11
COc1c(Nc2cc3cc(-c4cnn(CC(C)(C)O)c4)ccc3cn2)ccc(-c2cnc(C)n2C)c1F [Example 50, 1-(4-(3-(4-(1,2-Dimethyl-1H-imidazol-5-yl)-3-fluoro-2-methoxyphenylamino)isoquinolin-6-yl)-1H-pyrazol-1-yl)-2-methylpropan-2-ol]	2
